According to patent US10774071B2, “PD-1/PD-L1 inhibitors” (Gilead Sciences, Inc., priority 2018, dated 2020):

Legend:
[1] = biological target: PD-L1 (Homo sapiens (Human), UniProt Q9NZQ7); experiment: PD-L1/PD-L1 dimerization biochemical protein-protein interaction assay (ALPHA); type: binding; conditions: 0.5 nM His tagged PD-L1 and 0.5 nM FLAG tagged PD-L1, Table 4A, read-out: AC50 PDL1 Dimer 1 nM
[2] = biological target: PD-1/PD-L1 (Homo sapiens (Human), UniProt Q9NZQ7); experiment: PD-1/PD-L1 biochemical protein-protein interaction assay (ALPHA); type: binding; conditions: 0.3 nM His tagged PD-L1, 2.5 nM biotinylated Fc-PD-1, readings of 0.064 nM are equal to or less than 0.064 nM, read-out: IC50 PD-L1-PD1
PD-1/PD-L1, sequence (Q9NZQ7 19-238): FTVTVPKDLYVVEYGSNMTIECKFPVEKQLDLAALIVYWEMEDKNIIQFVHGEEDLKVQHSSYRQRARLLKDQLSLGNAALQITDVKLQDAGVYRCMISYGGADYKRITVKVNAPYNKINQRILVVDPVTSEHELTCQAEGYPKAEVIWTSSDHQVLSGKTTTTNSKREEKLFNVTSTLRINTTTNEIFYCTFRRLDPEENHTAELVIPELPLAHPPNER
Description: Compounds were tested in biochemical protein-protein interaction assays to determine if they can specifically block the interaction between the extracellular domains of PD-1/PD-L1 or CTLA/CD80. Binding of the protein pairs is measured using a bead based Amplified Luminescent Proximity Homogeneous Assay (ALPHA) platform. […] Final protein concentration in the assays were 0.3 nM (His tagged PD-L1), 2.5 nM (biotinylated Fc-PD-1), 1 nM (His tagged CTLA4) and 1 nM (biotinylated CD80).

PD-L1, sequence (Q9NZQ7 19-238): as above
PD-L1, sequence (Q9NZQ7 19-238): as above

SMILES | AC50 [1] [nM] | IC50 [2] [nM]
COc1nc(-c2cccc(-c3cccc4c3CC[C@@H]4Nc3nc(OC)c(CN4CCC5CC4(C(=O)O)C5)cc3C(F)(F)F)c2Cl)ccc1CN1CC(C)(O)C1 [A-56] | 11.8 | ≤ 0.064
COc1nc(-c2cccc(-c3cccc4c3CC[C@@H]4Nc3nc(OC)c(CN4CC(C(=O)O)C4)cc3C(F)(F)F)c2Cl)ccc1CN[C@H]1C[C@](C)(O)C1 [A-57] | 29.6 | ≤ 0.064
COc1nc(-c2cccc(-c3cccc4c3CC[C@@H]4Nc3nc(OC)c(CN4CCC5CC4(C(=O)O)C5)cc3C(F)(F)F)c2Cl)ccc1CN[C@H]1C[C@](C)(O)C1 [A-58] | 9.38 | ≤ 0.064
COc1nc(-c2cccc(-c3cccc4c3CC[C@@H]4Nc3nc(OC)c(CN4CCC5CC4(C(=O)O)C5)cc3C(F)(F)F)c2Cl)ccc1CNC[C@@H]1CCC(=O)N1 [A-59] | 7.75 | ≤ 0.064
COc1nc(-c2cccc(-c3cccc4c3CC[C@@H]4Nc3nc(OC)c(CN4C5CCC4(C(=O)O)CC5)cc3C(F)(F)F)c2Cl)ccc1CN1CC(C)(O)C1 [A-60] | 13.9 | ≤ 0.064
COc1nc(-c2cccc(-c3cccc4c3CC[C@@H]4Nc3nc(OC)c(CN4C5CCC4(C(=O)O)CC5)cc3C(F)(F)F)c2Cl)ccc1CNC[C@@H]1CCC(=O)N1 [A-61] | 10.6 | ≤ 0.064
COc1nc(-c2cccc(-c3cccc4c3CC[C@@H]4Nc3nc(OC)c(CN4CC5(C(=O)O)CCC4CC5)nc3C(F)(F)F)c2Cl)ccc1CNC[C@H]1CCC(=O)N1 [A-62] | 45.4 | ≤ 0.064
COc1nc(-c2cccc(-c3cccc4c3CC[C@@H]4Nc3nc(OC)c(CN[C@@H](C)C(=O)O)cc3C(F)(F)F)c2Cl)ccc1CN1CC(C)(O)C1 [A-63] | 34.4 | ≤ 0.064
COc1nc(-c2cccc(-c3cccc4c3CC[C@@H]4Nc3nc(OC)c(CN[C@@H](C)C(=O)O)cc3C(F)(F)F)c2Cl)ccc1CNC[C@@H]1CCC(=O)N1 [A-64] | 8.04 | ≤ 0.064
COc1nc(-c2cccc(-c3cccc4c3CC[C@@H]4Nc3nc(OC)c(CNCC(=O)O)cc3C(F)(F)F)c2Cl)ccc1CNC[C@@H]1CCC(=O)N1 [A-65] | 14.7 | ≤ 0.064
COc1nc(-c2cccc(-c3cccc4c3CC[C@@H]4Nc3nc(OC)c(CN[C@@H](C)C(=O)O)cc3C(F)(F)F)c2Cl)ccc1CN[C@H]1C[C@](C)(O)C1 [A-66] | 19.6 | ≤ 0.064
COc1nc(-c2cccc(-c3cccc4c3CC[C@@H]4Nc3nc(OC)c(CNCC(=O)O)cc3C(F)(F)F)c2Cl)ccc1CN[C@H]1C[C@](C)(O)C1 [A-67] | 32.9 | ≤ 0.064
COc1nc(-c2cccc(-c3cccc4c3CC[C@@H]4Nc3nc(OC)c(CN4CC[C@@](C)(C(=O)O)C4)nc3C(F)(F)F)c2Cl)ccc1CN1CC(C)(O)C1 [A-68] | 83.7 | ≤ 0.064
COc1nc(-c2cccc(-c3cccc4c3CC[C@@H]4Nc3nc(OC)c(CN4C5CCC4(C(=O)O)CC5)nc3C(F)(F)F)c2Cl)ccc1CNC[C@@H]1CCC(=O)N1 [A-69] | 5.27 | ≤ 0.064
COc1nc(-c2cccc(-c3cccc4c3CC[C@@H]4Nc3nc(OC)c(CN4CCC5CC4(C(=O)O)C5)nc3C(F)(F)F)c2Cl)ccc1CNC[C@@H]1CCC(=O)N1 [A-70] | 15.6 | ≤ 0.064
COc1nc(-c2cccc(-c3cccc4c3CC[C@@H]4Nc3nc(OC)c(CN4CC(C)(O)C4)nc3C(F)(F)F)c2Cl)ccc1CN1CC[C@@H](C(=O)O)C1 [A-71] | 52.4 | ≤ 0.064
COc1nc(-c2cccc(-c3cccc4c3CC[C@@H]4Nc3nc(OC)c(CN[C@@H](C)C(=O)O)nc3C(F)(F)F)c2Cl)ccc1CN1CC(O)C1 [A-72] | 13.4 | ≤ 0.064
COc1nc(-c2cccc(-c3cccc4c3CC[C@@H]4Nc3nc(OC)c(CNCC(=O)O)nc3C(F)(F)F)c2Cl)ccc1CN1CC(O)C1 [A-73] | 15.7 | ≤ 0.064
COc1nc(-c2cccc(-c3cccc4c3CC[C@@H]4Nc3nc(OC)c(CN[C@@H](C)C(=O)O)nc3C(F)(F)F)c2Cl)ccc1CN1CC(C)(O)C1 [A-74] | 9.07 | ≤ 0.064
COc1nc(-c2cccc(-c3cccc4c3CC[C@@H]4Nc3nc(OC)c(CNCC(=O)O)nc3C(F)(F)F)c2Cl)ccc1CN1CC(C)(O)C1 [A-75] | 18.1 | ≤ 0.064

SMILES | AC50 [1] [nM] | IC50 [2] [nM]
COc1nc(-c2cccc(-c3cccc4c3CC[C@@H]4Nc3nc(OC)c(CN4C[C@H](C)C[C@H]4C(=O)O)nc3C(F)(F)F)c2Cl)ccc1CNC[C@@H]1CCC(=O)N1 [A-76] | 30.2 | ≤ 0.064
CCC1C(C(=O)O)CCN1Cc1nc(C(F)(F)F)c(N[C@H]2CCc3c(-c4cccc(-c5ccc(CNC[C@@H]6CCC(=O)N6)c(OC)n5)c4Cl)cccc32)nc1OC (some centres unmarked) [A-77] | 26.6 | ≤ 0.064
COc1nc(-c2cccc(-c3cccc4c3CC[C@@H]4Nc3nc(OC)c(CN4C[C@H](C)C[C@H]4C(=O)O)cc3C(F)(F)F)c2Cl)ccc1CNC[C@@H]1CCC(=O)N1 [A-78] | 13.5 | ≤ 0.064
CCC1C(C(=O)O)CCN1Cc1cc(C(F)(F)F)c(N[C@H]2CCc3c(-c4cccc(-c5ccc(CNC[C@@H]6CCC(=O)N6)c(OC)n5)c4Cl)cccc32)nc1OC (some centres unmarked) [A-79] | 21.4 | ≤ 0.064
COc1nc(-c2cccc(-c3cccc4c3CC[C@@H]4Nc3nc(OC)c(CN4C[C@@H]5CC[C@H]4[C@@H]5C(=O)O)nc3C(F)(F)F)c2Cl)ccc1CNC[C@@H]1CCC(=O)N1 [A-80] | 19.9 | ≤ 0.064
COc1nc(-c2cccc(-c3cccc4c3CC[C@@H]4Nc3nc(OC)c(CN4CC5CC(C(=O)O)C4C5)nc3C(F)(F)F)c2Cl)ccc1CNC[C@@H]1CCC(=O)N1 (some centres unmarked) [A-81] | 23.1 | ≤ 0.064
COC(=O)C12CCC(CC1)N(Cc1nc(C(F)(F)F)c(N[C@H]3CCc4c(-c5cccc(-c6ccc(CNC[C@@H]7CCC(=O)N7)c(OC)n6)c5Cl)cccc43)nc1OC)C2 [A-82] | 84.9 | 0.14
COc1nc(-c2cccc(-c3cccc4c3CC[C@@H]4Nc3nc(OC)c(CN[C@@H](C)C(=O)O)cc3C(F)(F)F)c2Cl)ccc1CNC[C@H]1C[C@](C)(O)C1 [A-83] | 23.6 | ≤ 0.064
COc1nc(-c2cccc(-c3cccc4c3CC[C@@H]4Nc3nc(OC)c(CNCC(=O)O)cc3C(F)(F)F)c2Cl)ccc1CNC[C@H]1C[C@](C)(O)C1 [A-84] | 31.8 | ≤ 0.064
COc1nc(-c2cccc(-c3cccc4c3CC[C@@H]4Nc3nc(OC)c(CNC4(C(=O)O)CC4)nc3C(F)(F)F)c2Cl)ccc1CNC[C@H]1C[C@](C)(O)C1 [A-85] | 42.5 | ≤ 0.064
COc1nc(-c2cccc(-c3cccc4c3CC[C@@H]4Nc3nc(OC)c(CN[C@@H](C)C(=O)O)nc3C(F)(F)F)c2Cl)ccc1CNC[C@H]1C[C@](C)(O)C1 [A-86] | 29.2 | ≤ 0.064
COc1nc(-c2cccc(-c3cccc4c3CC[C@@H]4Nc3nc(OC)c(CNCC(=O)O)nc3C(F)(F)F)c2Cl)ccc1CNC[C@H]1C[C@](C)(O)C1 [A-87] | 22.3 | ≤ 0.064
CNC(=O)CNCc1nc(C(F)(F)F)c(N[C@H]2CCc3c(-c4cccc(-c5ccc(CNC[C@@H]6CCC(=O)N6)c(OC)n5)c4Cl)cccc32)nc1OC [A-88] | 60.4 | 0.202
COc1nc(-c2cccc(-c3cccc4c3CC[C@@H]4Nc3nc(OC)c(CNCCC(=O)O)cc3C(F)(F)F)c2Cl)ccc1CN[C@H]1C[C@](C)(O)C1 [A-89] | 81.8 | 0.072
COc1nc(-c2cccc(-c3cccc4c3CC[C@@H]4Nc3nc(OC)c(CN[C@H](C(=O)O)C4CC4)cc3C(F)(F)F)c2Cl)ccc1CN[C@H]1C[C@](C)(O)C1 [A-90] | 21.6 | ≤ 0.064
COC[C@H](NCc1cc(C(F)(F)F)c(N[C@H]2CCc3c(-c4cccc(-c5ccc(CN[C@H]6C[C@](C)(O)C6)c(OC)n5)c4Cl)cccc32)nc1OC)C(=O)O [A-91] | 42.7 | ≤ 0.064
COc1nc(-c2cccc(-c3cccc4c3CC[C@@H]4Nc3nc(OC)c(CNC(C)(C)C(=O)O)cc3C(F)(F)F)c2Cl)ccc1CN[C@H]1C[C@](C)(O)C1 [A-92] | 15.1 | ≤ 0.064
COc1nc(-c2cccc(-c3cccc4c3CC[C@@H]4Nc3nc(OC)c(CNCCC(=O)O)nc3C(F)(F)F)c2Cl)ccc1CN[C@H]1C[C@](C)(O)C1 [A-93] | 83 | ≤ 0.064
COc1nc(-c2cccc(-c3cccc4c3CC[C@@H]4Nc3nc(OC)c(CN[C@H](C(=O)O)C4CC4)nc3C(F)(F)F)c2Cl)ccc1CN[C@H]1C[C@](C)(O)C1 [A-94] | 20.7 | ≤ 0.064
COc1nc(-c2cccc(-c3cccc4c3CC[C@@H]4Nc3nc(OC)c(CNC(C)(C)C(=O)O)nc3C(F)(F)F)c2Cl)ccc1CN[C@H]1C[C@](C)(O)C1 [A-95] | 21.2 | ≤ 0.064
